The values below come from a melting point compilation (Tetko et al.; mined from patent text by program, amines drawn as free bases though some values may be those of a salt).

Usually melting point stands for the temperature, or range, at which the solid turns liquid. In turn, `COc1ccc(N2CCN(c3c(C)c(C)c4c(c3C)C(O)(C(C)(C)C)C(C)(C)O4)CC2)cc1` (stereo unspecified) gave a melting point of 113 to 115 °C.
`CN(C)Cc1ccc(-c2nc(C(=O)Nc3nccs3)c(-c3ccc(Cl)cc3)[nH]2)cc1`: the melting point fell in the range of 143 to 145 °C.
Consider `CCC(=O)C1=C(O)CC(c2ccc(Oc3cccc(S(C)(=O)=O)c3)cc2)CC1=O` (stereo unspecified), for which the melting point lay in the range of 110 to 114 °C.
`COCn1nnc(NC(=O)C(c2ccccc2)c2ccccc2)n1` yielded a melting point of 127 to 128 °C.
In turn, `COc1ccc(-c2ccc(C(C)C)cc2)c(C(=O)Nc2ccc(N3CCN(CC(N)=O)CC3)cc2)c1` displayed a melting point of 207 to 209 °C.
For `COc1cccc2c1nc(C(F)F)n2-c1nc(Nc2ccc(N(C)C)nc2)nc(N2CCOCC2)n1` the value was 136 to 137 °C.
On to `Nc1nc(NCCc2ccc(C=CC3CCCCC3)cc2)nc2c1ncn2C1OC(CO)C(O)C1O` (stereo unspecified), for which the melting point fell in the range of 161 to 164 °C.
As for `Nc1cc(C(=O)O)cc(S(N)(=O)=O)c1Nc1ccc2ccccc2c1`, the melting point amounted to 245 °C.
In the case of `Clc1cncc(-n2ccc3ccccc32)c1`, the melting point was in the range of 56 to 57 °C.
Then `COc1cc2c(cc1OC(C)=O)CCC1C2CCC2(C)C1CCC21OCCO1` (stereo unspecified), with 166 to 167 °C.
Then `O=c1nc(-c2ccccc2F)c2ccccc2[nH]1`, with 281 to 285 °C; and `Nc1ccc2c(c1Br)C(=O)CCC2`, with 93 to 96 °C.
`CCCCCCCCCCN1CC(C(=O)OC)N(S(=O)(=O)c2ccc(-c3ccc(Br)cc3)cc2)CC1=O` (stereo unspecified) registered a melting point of 117 to 118 °C.
As for `CC(=O)NC[C@H]1CN(c2ccc(N3CCC4(CC3)CSCO4)c(F)c2)C(=O)O1`, the melting point lay in the range of 114 to 116 °C.
Then `C=C(C)n1c(=O)n(-c2ccc(CCNC[C@H](O)COc3ccc(O)cc3)cc2)c2ncccc21`, with 62 to 64 °C.
With `CCOC(=O)c1cc2cc(OC(F)(F)F)cc(N)c2[nH]1`, the melting point lay in the range of 190 to 191 °C.
As to `Fc1cc(Cl)ccc1-n1nn[nH]c1=S`, the melting point came to 128 °C.
Then `N#CNC(=NC1CCN(Cc2ccccc2)CC1)NC1CCc2ccccc21` (stereo unspecified), with 159 to 160 °C; and `COc1cc(CC(=O)O)c(C(=O)O)cc1OC`, with 217 to 219 °C.
As for `O=C(NOCCNc1ccccc1)c1ccc(F)c(F)c1Nc1ccc(I)cc1Cl`, the melting point is 158 °C.
For `CCN(CC)C(=O)ON=C(C(=O)N(C)C)C(C)=NOC`, the melting point lay within 59 to 61 °C.
The molecule `COC(=O)c1ccc(CCCO)c(C23CC4CC(CC(C4)C2)C3)c1` displayed a melting point of 77 °C.
Consider `CCCc1c(CSc2nnc(S)s2)ccc(C(C)=O)c1O`, for which the melting point lay within 133 to 135 °C.
As to `CCCCCCCCCCCCCCCc1c([N+](=O)[O-])cc([N+](=O)[O-])c(OC)c1C(=O)O`, the melting point was 68 to 75 °C.
For `Clc1nc(C2=NCCN2)[nH]c1Cl` the value was 260 °C.
For the molecule `CC(C)COc1c(-c2ccc(S(C)(=O)=O)cc2)cnn(-c2cccc(Cl)c2)c1=O`, the melting point was in the range of 166 to 169 °C.
On to `Cc1oc(-c2ccccc2)nc1COc1ccc(CN(O)C(=O)NO)cc1`, for which the melting point lay in the range of 194 to 195 °C.
Then `CCOC(=O)C1Nc2cc(Cl)c(Cl)cc2NC1=O` (stereo unspecified), with greater than 300 °C; and `CCCCCCCC(=O)OCC(COC(=O)CCCCCCC)OCn1cnc2c(=O)[nH]c(N)nc21`, with 165 to 166 °C; and `CC(=O)Nc1ccc(N2C(=O)CCCC2c2ccc(Cl)c(Cl)c2)cc1` (stereo unspecified), with 267 to 268 °C.
`Cc1ccc(S(=O)(=O)O[C@H]2CCN(S(=O)(=O)c3ccc(C)cc3)C2)cc1` displayed a melting point of 110 °C.
`COC(=O)c1[nH]nc2c1CCc1cc(OC)c(Br)cc1-2` gave a melting point of 240 to 241 °C.
In turn, `Cc1nc2c(N)nc3ccccc3c2n1CCC(=O)N1CCOCC1` came in with a melting point of 166 to 169 °C.
Then `NC(=O)Cc1ccc2c(c1)CCc1ccccc1S2`, with 188 to 189 °C; and `COc1ccc(OCC2(CI)CC2)cc1`, with 53 to 54 °C; and `O=CNC=Cc1cc(O)ccc1O`, with 149 to 153 °C.
